Source: paper PMC5118774 (Frontiers in Pharmacology, 2016)
“Also recorded” adds a separate entry of the source.

Test system: mice exposed to unpredictable chronic mild stress (UCMS)
Test: Composite emotionality Z-score across EPM, OFT, NSF, cookie test
Assay type: in vivo, C57BL/6J mice
Description: To assess the consistency of effects of stress and drug treatment on overall stress-induced behavior, we calculated behavioral z-scores using the formula below. These normalized scores integrate measures of behavioral dimensions (e.g., emotionality) over time and tests, yielding a combined measure of the UCMS-induced behavioral syndrome ([Guilloux et al., 2011]).
Briefly, for each behavioral measure a Z-score was calculated for an individual animal indicating how many standard deviations (σ) a given observation (X) is from the mean of the control group (μ). These scores were averaged within test such that each test had the same weight, and then averaged across all four tests (EPM, OFT, NSF, cookie test) to obtain a composite emotionality Z-score for each mouse. In short, random or opposite behavior across tests yield null z-scores, whereas significant and/or trend-like behaviors across tests and consistently in the same directions yield high z-scores.

C#Cc1ccc2c(c1)C(c1ccccc1F)=N[C@H](C)c1c(C(=O)OCC)ncn1-2 [α5-PAM]
Z-emotionality score (female UCMS mice, acute 30 mg/kg i.p., first cohort (Figure 2)): Significant anti-stress effect | Z-emotionality score compared to non-stressed vehicle group (female UCMS mice, acute and chronic treatment groups, second cohort (Figure 3)): not statistically different | Z-emotionality score (female UCMS mice, acute treatment, vs UCMS-vehicle, second cohort (Figure 3)): normalized; also recorded: significantly decreased | Z-emotionality score (female UCMS mice, chronic 30 mg/kg i.p., first cohort (Figure 2)): Significant anti-stress effect | Z-emotionality score (female UCMS mice, chronic treatment, vs UCMS-vehicle, second cohort (Figure 3)): normalized; also recorded: significantly decreased | Composite emotionality Z-score (male UCMS mice, 37.5 mg/kg acute or chronic (Figure 4D), 37.5 mg/kg): No effect; also recorded: lack of anti-stress activity | Z-emotionality score (male UCMS mice, acute or chronic 30 mg/kg i.p., first cohort (Figure 2)): no effect | Summary emotionality Z-score (male mice, UCMS plus single housing, chronic treatment (Figure 4C)): lack of effect; also recorded: does not remediate
